According to publication PMC10299677, “Fluorinated Benzofuran and Dihydrobenzofuran as Anti-Inflammatory and Potential Anticancer Agents” (International Journal of Molecular Sciences, 2023):
Entries after “also recorded” stand apart in the source; their conditions may differ.

Legend:
IL-6 mRNA = test: LPS-dependent IL-6 mRNA in THP-1-derived macrophages (RT-PCR); assay type: cell-based, human; details: 50 µM, 10 ng/ml LPS 6 h
Experimental: F i g u re S3: Eff ect of benzofuran compounds on the lev els of LP S -dependent mRNA of CCL2 and IL-6 in THP-1 –deriv ed macrophages. Human-monoc yti c cell l ine-THP-1 wer e treat ed with PMA (25 nM for 48 hours) th en in cub ated with 50 μM compounds for 30 minutes b efo re the addit ion of 10 ng/ml LP S fo r 6 hours. Gene ex pression of IL6 and CCL2 were measur ed by RT-PCR and the v alu es wer e nor mal ized to GAPDH. Results represent means ± SEM by one way ANOVA followed by Dunnett test.

COX-1 = target: T1, COX-1 (Homo sapiens, UniProt P23219); test: COX-1 activity: PGE2 from exogenous arachidonic acid in HEK-293 cells overexpressing COX-1; assay type: cell-based; details: for effect on COX-1 activity: 10 µM for compounds 1, 7, 9, 50 µM for others, 10 µM arachidonic acid; for IC50: HEK-293 overexpressing COX-1, compounds 30 min prior to 10 µM arachidonic acid
T1 construct: expressed in transfected cells
T1 sequence (P23219 24-599): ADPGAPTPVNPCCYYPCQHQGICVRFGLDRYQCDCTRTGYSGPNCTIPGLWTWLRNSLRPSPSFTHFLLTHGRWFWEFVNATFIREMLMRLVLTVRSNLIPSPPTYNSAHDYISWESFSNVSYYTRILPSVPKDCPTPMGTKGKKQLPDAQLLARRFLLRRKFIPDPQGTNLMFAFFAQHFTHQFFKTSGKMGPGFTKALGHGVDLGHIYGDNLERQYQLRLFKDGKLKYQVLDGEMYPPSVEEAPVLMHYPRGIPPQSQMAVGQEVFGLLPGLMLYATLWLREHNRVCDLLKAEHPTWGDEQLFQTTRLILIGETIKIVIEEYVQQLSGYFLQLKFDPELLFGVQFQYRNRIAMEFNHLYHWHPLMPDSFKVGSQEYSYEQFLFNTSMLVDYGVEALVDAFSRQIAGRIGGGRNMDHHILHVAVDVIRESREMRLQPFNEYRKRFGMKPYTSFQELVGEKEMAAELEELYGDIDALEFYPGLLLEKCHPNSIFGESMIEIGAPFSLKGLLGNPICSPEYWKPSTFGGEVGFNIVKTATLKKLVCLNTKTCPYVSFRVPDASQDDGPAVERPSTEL
Experimental: Figure 3 Effects of the fluorinated benzofuran and dihydrobenzofuran on COX-1 and COX-2 activities. (A) Illustration for COX-1 activity assay. HEK-293 cells stably overexpressing COX-1 are treated with the nine derivatives of benzofuran at concentrations of only 10 µM for compounds 1, 7, and 9, and 50 µM for the other compounds, 30 min prior to the addition of 10 µM arachidonic acid (AA). […] (B) COX-1 activity. […] Levels of PGE2 were very low in the absence of arachidonic acid (0.04 ± 0.01 ng/mL) and 104.3 ± 16.7 ng/mL for 10 µM AA. (C) Illustration for COX-2 activity determination. Macrophages are treated with 10 µM of aspirin (ASA) for 30 min to block basal COX activity, washed, and treated with 10 ng/mL LPS for 24 h to induce COX-2. Cells are then washed and incubated 30 min with 50 µM of the different compounds prior to the addition of 10 µM of AA. The produced PGE2 mainly reflects COX-2 activity. (D) COX-2 activity. Percentage of LPS-treated cells was calculated, and data are represented as mean ± SEM (n = 4); * p < 0.05 versus AA for COX-1 activity, and versus LPS + ASA + AA for COX-2 activity (one-way ANOVA followed by Dunnett’s test). […] Levels of PGE2 were very low in the absence of arachidonic acid (0.06 ± 0.01 ng/mL) and 71.7 ± 5.7 ng/mL for 10 µM AA.
COX-1 and COX-2 activities were performed as described previously in human embryonic kidney cell line (HEK-293) stably overexpressing COX-1 [19] and in macrophages, respectively. […] For both COX-1 and COX-2 assays, the benzofuran compounds were then added to the cells for 30 min prior to the incubation with 10 µM arachidonic acid for another 30 min. PGE2 was then measured using an enzyme immunoassay, as described previously.
(§1) IL-6, CCL2, nitrite (for NO), and PGE2 concentrations from 3–5 independent experiments were expressed as percentage of LPS alone and as mean ± SEM. COX activity was determined as percentage of PGE2 produced from exogenous arachidonic acid. Curve fitting and calculation of IC50 values were performed using GraphPad Prism (version 9.5.1 Software, La Jolla, CA, USA).

COX-2 = target: T2, COX-2 (Mus musculus, UniProt Q05769); test: COX-2 activity: PGE2 from exogenous arachidonic acid in aspirin-pretreated, 24 h LPS-treated macrophages; assay type: cell-based, C57BL/6J mice; details: 10 µM arachidonic acid; for effect on COX-2 activity: 50 µM, aspirin-pretreated LPS-treated macrophages; for IC50: aspirin-pretreated, 24 h LPS-treated macrophages
T2 construct: prior to the addition of LPS for 24 h to induce COX-2; endogenous in cells; host or cells: Bone marrow-derived macrophages from C57BL/6J mice, aspirin-pretreated, then LPS 24 h
T2 sequence (Q05769 18-604): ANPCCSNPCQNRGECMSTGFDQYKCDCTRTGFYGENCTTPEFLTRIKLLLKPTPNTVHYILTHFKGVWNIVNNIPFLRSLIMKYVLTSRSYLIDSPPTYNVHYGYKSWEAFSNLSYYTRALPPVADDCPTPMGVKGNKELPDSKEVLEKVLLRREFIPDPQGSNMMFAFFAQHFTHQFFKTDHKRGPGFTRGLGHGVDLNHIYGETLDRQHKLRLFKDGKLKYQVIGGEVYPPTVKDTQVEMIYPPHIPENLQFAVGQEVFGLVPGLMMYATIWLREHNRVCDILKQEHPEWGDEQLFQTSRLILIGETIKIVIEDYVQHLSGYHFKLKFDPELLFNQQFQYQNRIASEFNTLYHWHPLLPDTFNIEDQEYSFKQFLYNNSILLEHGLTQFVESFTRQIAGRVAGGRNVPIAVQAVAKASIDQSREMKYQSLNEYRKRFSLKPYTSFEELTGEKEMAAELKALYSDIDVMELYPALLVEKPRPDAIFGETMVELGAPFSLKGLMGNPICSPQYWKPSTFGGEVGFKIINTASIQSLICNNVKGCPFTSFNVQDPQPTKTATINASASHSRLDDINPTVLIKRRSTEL
Experimental: (A) Illustration for COX-1 activity assay. […] (B) COX-1 activity. […] (C) Illustration for COX-2 activity determination. Macrophages are treated with 10 µM of aspirin (ASA) for 30 min to block basal COX activity, washed, and treated with 10 ng/mL LPS for 24 h to induce COX-2. Cells are then washed and incubated 30 min with 50 µM of the different compounds prior to the addition of 10 µM of AA. The produced PGE2 mainly reflects COX-2 activity. (D) COX-2 activity. Percentage of LPS-treated cells was calculated, and data are represented as mean ± SEM (n = 4); * p < 0.05 versus AA for COX-1 activity, and versus LPS + ASA + AA for COX-2 activity (one-way ANOVA followed by Dunnett’s test).
For both COX-1 and COX-2 assays, the benzofuran compounds were then added to the cells for 30 min prior to the incubation with 10 µM arachidonic acid for another 30 min. PGE2 was then measured using an enzyme immunoassay, as described previously.
as §1

Structure (SMILES) | effect on IL-6 mRNA levels (IL-6 mRNA) | effect on COX-1 activity (COX-1) | effect on COX-2 activity (COX-2) | IC50 (COX-2) | IC50 (COX-1)
COC(=O)/C=C1/Oc2ccc(Br)cc2C1(F)F [Compound 1] | decreased significantly |  |  |  | 
O=C(O)/C=C1/Oc2ccc(Br)cc2C1(F)F [Compound 2] | decreased significantly |  |  |  | 
COC(=O)CC1(O)Oc2ccc(Br)cc2C1(F)F (stereo not drawn) [Compound 8] |  | without any effect | without any effect |  | 
O=C(O)Cc1oc2ccc(-c3ccccc3)cc2c1F [Compound 5] |  | direct inhibitory effect | strongly reduced; also recorded: direct inhibitory effect | 28.1 µM | 
C=C(C)c1ccc2oc(CC(=O)O)c(F)c2c1 [Compound 6] |  | significantly reduced; also recorded: direct inhibitory effect | strongly reduced; also recorded: direct inhibitory effect | 13 µM | 5 µM
O=C(O)/C=C1\Oc2ccc(Br)cc2C1(F)F [Compound 3] | to a lesser extent | significantly reduced | slight reduction |  | 7.9 µM
